# Data from US20040023901A1, “Nucleoside 5'-monophosphate mimics and their prodrugs” (priority 2002, published 2004).
# Read-outs that look alike come from different tables or passages of the source.
# Experiments:
# [1] = bovine
# Method: (§15) Fetal calf serum purchased from HyClone Corporation was mixed 1:1 with each compound containing Tris-HCl buffer and MgCl2. Typically the total volume used for the experiment was 500 μl.
# (§16) The final concentrations of the reaction components were as follows:
# (§17) The reaction mixtures were made up and incubated at 37° C. At appropriate times aliquots of 25 μl were removed and added to 65 μl ice-cold methanol. These solutions were incubated for at least one hour at −20° C. and typically overnight. After incubation samples were centrifuged for at least 20 minutes at high speed in a microcentrifuge. The supernatant was transferred to a clean tube and the extract was dried under vacuum in a LabConco Centrivap Concentrator. The dried extracts were resuspended in dH2O and filtered to remove particulate before analysis on reverse phase HPLC.
# (§18) The reverse phase HPLC columns used for the analysis were either a Phenomenex C18 Aqua column (2×100 mm) or the Phenomenex C18 Aqua column (3×150 mm) used with the appropriate guard column. The HPLC was run at 0.2 ml/min (for the 2×100 mm column) or at 0.5 ml/min (for the 3×150 mm column) with the following buffer system: 5 mM tetrabutylammonium acetate, 50 nM ammonium phosphate, and an acetonitrile gradient running from 5% up to as high as 60%. The amount of remaining parent compound at each time point was used to determine the half-life of the compound. […] Unmodified nucleoside monophosphates were used as positive controls.
# [2] = biological target: purified Candida albicans IMPDH (Candida albicans, UniProt O00086); assay: Assay for inhibition of IMPDH activity (C. albicans); format: biochemical; details: for inhibition at 100 µM: read-out: % Inhibition at 100 μM C. albicans; for Ki: C. albicans IMPDH, 50 uM IMP, 150 uM NAD, 25° C.
# purified Candida albicans IMPDH, sequence (O00086 whole entry, canonical isoform): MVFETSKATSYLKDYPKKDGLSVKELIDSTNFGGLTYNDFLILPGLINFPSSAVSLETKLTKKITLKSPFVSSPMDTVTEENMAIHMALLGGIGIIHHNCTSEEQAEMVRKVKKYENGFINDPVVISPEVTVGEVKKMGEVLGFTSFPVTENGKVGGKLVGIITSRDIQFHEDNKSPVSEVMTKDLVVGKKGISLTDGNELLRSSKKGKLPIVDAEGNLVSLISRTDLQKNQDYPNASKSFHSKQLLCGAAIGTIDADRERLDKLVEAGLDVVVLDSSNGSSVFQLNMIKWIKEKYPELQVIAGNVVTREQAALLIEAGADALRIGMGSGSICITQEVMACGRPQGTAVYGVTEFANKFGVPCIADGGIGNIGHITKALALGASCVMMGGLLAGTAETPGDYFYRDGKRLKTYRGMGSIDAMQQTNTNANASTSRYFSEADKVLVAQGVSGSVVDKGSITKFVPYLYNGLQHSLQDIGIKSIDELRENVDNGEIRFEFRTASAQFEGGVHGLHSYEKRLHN
# Method: (§1) The assays employed to measure the inhibition of inosine monophosphate dehydrogenase (IMPDH) activity are described below. The effectiveness of the compounds of the present invention as inhibitors of IMPDH enzymes was determined in the following assays. This assay was used to measure the ability of the nucleotide mimics of the present invention to inhibit the enzymatic reaction catalyzed by IMPDH enzymes. The assay is useful for measuring the activity of IMPDH from several organisms, including human, fungal, and bacterial isoforms. In the enzymatic reaction, the oxidation of inosine 5′-monophosphate (IMP) to xanthosine 5′-monophosphate (XMP) is coupled to the reduction of nicotinamide adenine dinucleotide (NAD). This reaction is monitored at 340 nm using a UV/VIS spectrophotometer or at 474 nm using a fluorometer (excitation wavelength=344 nm). This assay is a modification of a reported method (W. Wang and L. Hedstrom, “A Potent ‘Fat Base’ Nucleotide Inhibitor of IMP Dehydrogenase,” Biochemistry 1998, 37, 11949-52).
# (§2) Assay Buffer Conditions: (200 uL-total/reaction)
# (§3) 30 nM purified human type II IMPDH, or
# (§4) 7.5 nM purified Candida albicans IMPDH
# (§5) The compounds were tested at various concentrations up to 500 uM final concentration. The standard IMPDH assay is performed in a 96-well plate (Corning). An appropriate volume of assay buffer, containing the substrates IMP and NAD, was pipetted into the plate wells. Nucleoside derivatives of the present invention were added to the reactions at the desired concentrations. The reactions were initiated by the addition of enzyme. The reactions were allowed to proceed for 5 minutes at 25° C. The production of NADH was monitored at 340 nm on a microplate spectrophotometer (Molecular Devices Corp, Sunnyvale, Calif.). Initial velocity data (mA min^−1) was collected and fit to the equations below. Blank reactions were prepared in parallel with the test reactions in which enzyme was omitted from the reactions, substituted by an appropriate volume of enzyme diluent.
# (§6) The percentage of inhibition was calculated according to the following equation:
# (§7) % Inhibition=[1−(mA min^−1 in test reaction−mA min^−1 in blank)/(mA min^−1 in control reaction−mA min^−1 in blank)]×100.
# (§8) Each inhibitor was titrated over an appropriate range of concentrations, and inhibition constants were determined using the following equations where v=initial velocity, Vm=maximal velocity, S=substrate, I=inhibitor, Km=Michaelis constant, and Ki=inhibition constant:
# (§9) Michaelis-Menten Equation: […]
# (§10) Competitive Inhibition Equation:
# (§11) Inhibition constants (Ki) for irreversible inhibitors of IMPDH were determined using the following three equations where kobs=observed rate constant, t=time, A=absorbance at time t, A0=initial absorbance at time zero, V0=initial rate, S=substrate, I=inhibitor, k2=[…] rate constant, Km=Michaelis constant, Ki, app=apparent inhibition constant, and Ki=inhibition constant:
# (§12) Irreversible Inhibition Equations 1-3:
# (§13) A−A0=V0[1−exp(−kobst)] (equation 1)
# (§14) Kobs=k2[I]/(Ki, app+[I]) (equation 2)
# [3] = biological target: purified human type II IMPDH (Homo sapiens, UniProt P12268); assay: Assay for inhibition of IMPDH activity (human type II); format: biochemical; details: 50 uM IMP, 150 uM NAD, 25° C.
# Method: as §1, §2, §3, §4, §5, §6, §7, §8, §9, §10, §11, §12, §13, §14
# [4] = Serum stability assessment in fetal calf serum; details: 10% (v/v) fetal calf serum, 37° C., 500 μM nucleotide mimic, time points through 24 hours
# Method: as §15, §16, §17, §18
# in vitro = details: bovine, 10% (v/v) fetal calf serum, pH 7.4
# Method: as §15, §16, §17, §18
Molecule,Ki [3],Ki [2],also measured
5-Ethynyl-1-(5-methylphopsphonyl-β-D-ribofuranosyl)imidazole-4-carboxamide [Compound 10],–,–,Serum t1/2 [1]: >8 h
"NC(=O)c1ncn([C@@H]2O[C@H](CP(=O)(O)O)[C@H](O)C2O)c1O (stereo partly drawn) [Compound 44, 4-Carbamoyl-1-[5-deoxy-5-(dihydroxyphosphinyl)-β-D-ribofuranosyl]-1,3-imidazolium-5-olate]",7.92 µM,–,inhibition at 100 µM [2]: 98.1%
"NC(=O)c1ncn([C@@H]2O[C@H](COCP(=O)(O)O)[C@@H](O)[C@H]2O)n1 [Compound 19, 1-[5-O-(Dihydroxyphosphinyl)methyl-β-D-ribofuranosyl]-1,2,4-triazole-3-carboxamide]",85 µM,–,–
C#Cc1c(C(N)=O)ncn1[C@@H]1O[C@H](COP(=O)(O)O)[C@@H](O)[C@H]1O [EICAR 5′-monophosphate],–,–,Serum t1/2 [4]: 3 h
"NC(=O)c1ncn([C@@H]2O[C@H](C[PH](=O)O)[C@H](O)C2O)n1 (stereo partly drawn) [Compound 40, 1-[5-Deoxy-5-(hydroxyl-H-phosphinyl)-β-D-ribofuranosyl]-11,24-triazole-3-carboxamide]",–,–,half-life at 500 μM (in vitro): > 24 h
"NC(=O)c1ncn([C@@H]2O[C@H](COP(=O)(O)S)[C@H](O)C2O)n1 (stereo partly drawn) [Compound 1, 1-β-D-ribofuranosyl-1,2,4-triazole-3-carboxamide 5′-phosphothioate]",0.94 µM,1.34 µM,half-life at 500 μM (in vitro): 18 h
"C#Cc1c(C(N)=O)ncn1[C@@H]1O[C@H](COP(=O)(O)S)[C@H](O)C1O (stereo partly drawn) [Compound 2, 5-Ethynyl-1-(1-D-ribofuranosyl)imidazole-4-carboxamide 5′-phosphorothioate]",34.2 µM,–,inhibition at 100 µM [2]: 82%
NC(=O)c1ncn([C@@H]2O[C@H](COP(=O)(O)O)[C@@H](O)[C@H]2O)n1 [Ribavirin 5′-monophosphate],–,–,Serum t1/2 [4]: 6 h
NC(=O)c1ncn([C@@H]2O[C@H](CC(F)(F)P(=O)(O)O)[C@H](O)C2O)n1 (stereo partly drawn) [Compound 48],27.1 µM,20.4 µM,half-life at 500 μM (in vitro): > 24 h
"NC(=O)c1ncn([C@@H]2O[C@H](CP(=O)(O)O)[C@@H](O)[C@H]2O)n1 [Compound 39, 1-[5-Deoxy-5-(dihydroxyphosphinyl)-β-D-ribofuranosyl]-1,2,4-triazole-3-carboxamide]",1.82 µM,1.48 µM,–
"NC(=O)c1ncn([C@@H]2O[C@H](CO[PH](O)=S)[C@H](O)C2O)n1 (stereo partly drawn) [Compound 53, 1-[5-O-(H-Thiophosphonyl)-β-D-ribofuranosyl]-1,2,4-triazole-3-carboxamide]",34.7 µM,10.7 µM,–
"NC(=O)c1ncn([C@@H]2O[C@H](CC(F)(F)P(=O)(O)O)[C@H](O)C2O)c1O (stereo partly drawn) [Compound 50, 4-Carbamoyl-1-[5,6-dideoxy-6-(dihydroxyphosphinyl)-6,6-difluoro-β-D-allofuranosyl]-1,3-imidazolium-5-olate]",2.04 µM,–,inhibition at 100 µM [2]: 71.5%
